Reference: a melting point compilation (Tetko et al.; mined from patent text by program, amines drawn as free bases though some values may be those of a salt)

Compound	melting point [°C]
CNC(=O)[C@@H]1CCCN1S(=O)(=O)c1ccc(Cl)c(COc2cccc3c(-n4ccnc4)cc(C)nc23)c1Cl	90
Nc1nc(Oc2ccccc2)c2nc[nH]c2n1	228
Cc1ccc(CCC(=O)O)cc1C	82
CC(C)(C)OC(=O)N1CCN(c2ccc(OCc3ccccc3)cn2)CC1	93 to 94
COc1ccc2cc(CCC(C)O)ccc2c1 (stereo not given)	94 to 95
CCNC(=O)C1CC2(NC(=O)NC2=O)c2cc(F)ccc2O1 (stereo not given)	> 300
CCC(=O)Oc1cc(OC)cc(OC)c1C(=O)C=Cc1ccc(OC)cc1	117 to 118
CCOP(=O)(/C=C/c1cn(-c2ccccc2)nc1OCc1ccc(OCc2nc(N3CCCCC3)sc2C)c(OC)c1)OCC	95 to 96
CCN(CC)CCNC(=O)c1cccc2c(=O)c(C)c(-c3cccc(Cl)c3)oc12	116 to 117
CCOc1ccc(-c2nc(-c3cc(CNC)c(O)c(C(=O)O)c3)cs2)cc1OCC	271 to 273
COc1ccc(C(=N)N)cc1C	151 to 153
Cc1nc(-n2ccn(Cc3ccc(C(F)(F)F)cc3)c2=O)sc1C(=O)NCc1cccnc1	163 to 164
CCOC(=O)C(C#N)(CCCN(C)CCc1ccc(OC)c(OC)c1)c1ccc(OC)c(OC)c1 (stereo not given)	77 to 78
CN1C(=O)CC(c2ccc(-c3ccc(F)cc3)cc2)C1C(O)c1ccc(-c2ccccc2)s1 (stereo not given)	191 to 193
CCCCCCCCCCCC(=O)c1ccc(-c2ccc(O)c(F)c2)cc1	123 to 124
CNCc1cc(=O)oc2cc(OC)ccc12	109 to 110
COC(=O)C(=Cc1ccc(-c2cccc(N(C)C(=O)Nc3ccccc3)c2)cc1)OC	186
Cc1ccc(N(C)S(=O)(=O)c2cccs2)c2[nH]c(C3=NCC(CCO)S3)cc12 (stereo not given)	168 to 169
COc1ccc(C(=O)Nc2cc(NC(=O)c3cccc(N4CCOCC4)c3)ccc2Cl)cc1OC	148
O=c1[nH]cc2n1-c1ccc(Cl)cc1C(c1ccccc1F)=NC2	247 to 250
O=C1NCCC[C@@H]1NS(=O)(=O)c1ccc(F)c(F)c1	153 to 155
O=C(C=Cc1ccccc1O)c1ccccc1	148 to 149
CC(C)(C)OC(=O)NCC1Cc2ccc(OCc3ccccc3)cc2C1 (stereo not given)	95 to 98
COc1nc(C(F)(F)F)cc(=O)n1-c1cc(O)c(Cl)cc1F	147 to 149

Compound	melting point [°C]
O=C(C=Cc1ccccc1)Nc1cccc(O)c1	222 to 223
Cn1cc(-c2cccc(Cl)c2)c(=S)c(-c2cccc(Cl)c2)c1	210 to 212
Nc1nc2ccccc2c2c1nc(CCCOc1ccccc1)n2CCCCNC(=O)N1CCOCC1	71.5 to 72.1
COC(=O)CN1CCN(c2cccc(-c3nc4cc(OC)cc(OC)c4c(=O)[nH]3)n2)CC1	176 to 177
CCC1=C(C(=O)O)C(C(F)(F)F)Oc2ccc(Cl)cc21 (stereo not given)	171 to 172
CC1=C(C(=O)OCCO)C(c2ccccc2C(F)(F)F)C(C(=O)OCCO)=C(C)N1	125 to 127
O=C(O)C=Cc1cn(Cc2cc(OCc3ccccc3)cc(OCc3ccccc3)c2)cc1-c1ccccc1	182 to 183
Cc1nn(C)c(OC(=O)C(Cl)=C(Cl)Cl)c1C(=O)c1ccc(Cl)cc1Cl	141 to 142
CCCn1c(=O)c2c(nn3cc(-c4ccccc4)[nH]c23)n(Cc2ccccc2)c1=O	261 to 262
Cc1ccc(C(=S)Oc2nc[nH]c2C(N)=O)cc1	219
N#Cc1c(N2CCN(CCCCCC(=O)N3Cc4ccccc4C3)CC2)cccc1C(F)(F)F	160
CCOC(=O)c1ccc(-c2[nH]nc3c2C(=O)c2c(NC(=O)NN4CCC[C@@H]4COC)cccc2-3)s1	221 to 222
C=C1C(=O)N[C@@H](Cc2ccccc2)C(=O)N1C(C)C	141 to 142
CC(C)(C)NS(=O)(=O)c1c[nH]c2ccccc12	157 to 158
Nc1c(Cl)cc(Cn2nc(-c3ccc(Cl)c(Cl)c3)oc2=O)c(O)c1Cl	200 to 202
CCOC(=O)c1cc(Oc2ccc(C(F)(F)F)cc2Cl)ccc1[N+](=O)[O-]	156 to 160
c1cc2c(c(N3CCNCC3)n1)CCO2	89.5
CCCCN(NC(=O)c1ccccc1)C(=O)c1ccc(Cl)c(Cl)c1	234 to 236
CS(=O)(=O)c1ccc(-c2cnn(C3CCCCC3)c(=O)c2-c2ccc(F)cc2)cc1	169 to 171
CC(C)Nc1cc(=O)n(-c2ccccc2)nc1-c1nc[nH]n1	203 to 205
N#Cc1cccc(-n2ccc3cc(Cl)ccc32)c1	120 to 122
Oc1ccc2nc(-c3cccc(O)c3O)oc2c1	256 to 258
CCCCCCC(C(=O)O)n1cc(CC)c2cc(-c3ccccc3-c3nn[nH]n3)ccc21 (stereo not given)	110 to 113
Cc1nc(-n2cn[nH]c2=O)sc1C(=O)NCc1cccnc1	278 to 279

Compound	melting point [°C]
CC(C)(C)OC(=O)N1CCC(O)(CSC2=CC(=O)C(=O)c3ccccc32)CC1	156 to 157
Cc1c2ccccc2nc2ccc3nc4ccccc4c(C)c3c12	217 to 218
CCCN(Cc1cccc(C(=N)N)c1)C(=O)Nc1ccc(-c2ccccc2S(N)(=O)=O)cc1	166 to 167
Cc1cc(C)c(NC(=O)N(Cc2cc3ccccc3c3ccccc23)C2CCCCC2)c(C)c1	125 to 128
CC(C)(NC=O)C(=O)O	130 to 131
CC(C)=NOCc1nc2c(N)nc3cccnc3c2n1CCCNC(=O)C(C)C	195 to 197
CS(=O)(=O)CCCn1c(=NC(=O)c2cccc(Cl)c2)sc2cc(OC(F)(F)F)ccc21	188
COC(=O)CCCc1cc2nc(Cl)ccc2n1S(=O)(=O)c1cccc(Br)c1	109
COc1ccc(C(=O)Nc2ccc3c(c2)CCC3=O)cc1	237 to 238
O=C1COC(c2cccc(Cl)c2)c2ncccc21 (stereo not given)	158 to 160
CC1(C)CC(OC(=O)Nc2ccccc2)CC(C)(C)N1CC(O)c1ccccc1 (stereo not given)	186 to 187
Nc1sc2c(c1C(=O)c1cc3ccccc3o1)CCN(Cc1ccccc1)C2	83 to 87
CCc1c(CC(=O)NCCCCCC(=O)NCCc2ccc(NS(C)(=O)=O)cc2)ccc(OC)c1OC	110 to 112
CN(C)Cn1nc(-c2ccncc2)n(-c2ccccc2)c1=S	173 to 174
O=[N+]([O-])c1ccccc1-c1ccc2c(c1)S(=O)(=O)NC(C1CCCCC1)N2 (stereo not given)	204 to 207
CCNC(=O)Oc1cccc(NC(=O)C=C(C)OC)c1	183
Clc1ccc(CSC(Cn2ccnc2)C23CC4CC(CC(C4)C2)C3)cc1 (stereo not given)	157 to 160
C[C@H](CSC(=O)C(C)(C)C)C(=O)N(CC(=O)OC(C)(C)C)C1CCCC1	58
CCOC(=O)c1c(-c2cccc(C)c2)oc(Cl)c(Cl)c1=O	113
CC(C)[C@H](NC(=O)OC(C)(C)C)C(=O)NCCCN1CCN(CCCNc2cccc3c2C(=O)c2ccccc2C3=O)CC1	108
CCOC(=O)C1=C(C)NC(C)=C(C(=O)OCCSC(C)=O)C1c1cccc([N+](=O)[O-])c1 (stereo not given)	98 to 101
CC(=O)Nc1ccc(OCc2nc3ccccc3o2)cc1C	160
